“And” between values parts separate entries of the source, which are not always exact repeats. Equal values may be shown once. Read-outs that look alike come from different tables or passages of the source.
What was measured:
[1] = test system: alkaline phosphatase; format: biochemical; conditions: PBS; 18 hours room temperature, PNPP 1 hour
Description: Our next study compared different dilutions of the original alkaline phosphatase source (1:10 [Activity: 1,000 units] and 1:100 [100 units]) and two sources of alkaline phosphatase, both purchased from Sigma Aldrich (St. Louis, MO). […] The five conditions for this study included original alkaline phosphatase (1:1), original alkaline phosphatase (1:10), original alkaline phosphatase (1:100), new alkaline phosphatase (1:1), and the blanks (phosphate buffered saline (PBS)). […] The two controls contained ink to determine if there would be any background effect.
Preparation • 1. Alkaline phosphatase reaction reagent • a. Original AP • i. Add 1 mL PBS into AP vial, pipette re-pipette 10 times, then invert with cap on, to mix well. Take this 1 mL and add to 50 mL conical tube filled with 40 mL PBS. Invert to mix 10 times, vortex mix, let sit 2 minutes, invert to mix again 10 times • ii. Prepare 2 more 50 mL conical tubes • 1. 1:10 • a. […] 1:100 • a. Take 4 mL of solution made above, add to 36 mL PBS. […] New AP • i. Add 400 mg into a 50 mL conical tube filled with 40 mL PBS. Invert to mix 10 times, vortex mix, let sit 2 minutes, invert to mix 10 more times. Check to make sure all suspended. If not, vortex mix and invert until fully suspended. • 2. Prepare 24-well plates • 3. […] Aliquot with 200 μL PNPP Conditions • 1. Old AP • 2. Old AP (1:10) • 3. Old AP (1:100) • 4. New AP • 5. Blank (PBS only) Procedure • 1. 24-well plates • a. Add 1 mL (using P1000, blue tips) of the prepared PBS-AP to the plate (for each condition) • b. Add 100 μL of the test material to the well, mix with the same pipette tip, dispose and repeat for the rest of the test materials • c. Wrap the plate in saran wrap and place into the container • d. […] To the prepared 96-well plate with 200 μL PNPP or PBS, add 20 μL from the 24-well plate • 3. Incubate for 1 hour • 4.

[2] = test system: alkaline phosphatase; format: biochemical
Procedure: New stocks were made the of the 1:100 alkaline phosphatase reaction reagents.
The conditions included: 1:100 dilution of alkaline phosphatase reaction reagent with two solvents (buffered saline and ethanol), dosing in 0.5 mL microcentrifuge tubes with 20 μL of chemical added to 180 μL of reaction reagent, and incubating with p-Nitrophenyl phosphate disodium salt (PNPP) substrate for 1-hour.

[3] = test system: alkaline phosphatase; conditions: 30 μL chemical in 300 μL reagent 1:100, 4 hours room temperature, 3 mL PNPP 1 hour
Procedure: We changed the test chemical dosage to 30 μL and the alkaline phosphatase reaction reagent to 300 μL, but kept the incubation to 4 hours at room temperature.
PBS: Take 4 mL of AP (1:10) stock solution, add to 36 mL PBS. Vortex mix and then invert to mix 10 times • ii. […] Vortex mix and then invert to mix 10 times • b. PBS (lx) • c. […] Prepare 4 mL glass vials for dosing • a. Four sets • i. R1+ (PBS-AP) • ii. R1− (PBS) • iii. […] Prepare 96-well plates for PNPP reading (3 wells for each test chemical) Procedure • 1. Aliquot 300 μL of each reaction reagent to 4 mL glass vials. • 2. Add 30 μL of the test sample to each 4 mL glass vial. • 3. Incubate at room temperature for 4 hours. • 4. Aliquot 3 mL of PNPP to each 4 mL glass vial, let sit for 1 hr. • a. Aliquot 750 μL into the 4 mL glass vial to stop the reaction. • 5.

[4] = test system: skin; conditions: cited from earlier work; for in vivo GHS: skin, chemical lists of the experiments
[5] = test system: alkaline phosphatase; format: biochemical; conditions: 3-hour exposure; 10 μL into 90 μL
[6] = test system: porcine skin
Procedure: Our initial studies involved using fresh and frozen porcine skin “buttons”. These buttons were punched out of porcine skin (Spear Products, Cooopersburg, PA) using a […] biopsy punch tool. Three different kinds of skin buttons were prepared from fresh porcine skin, frozen porcine skin, and frozen porcine skin with the fatty layer removed. […] The next day, the tubes were taken out and vortexed and 500 μL of the solution was aliquoted into cuvettes to read at three different optical density wavelengths (OD190, OD290, OD300) to evaluate the best response.
Skin Preparation • 1. Thaw 2 pieces of frozen porcine skin • 2. Punch out buttons: 24 buttons in each tube filled with 40 mL PB S-Azide 96-well plate Preparation • 1. Plate layout for dosing:
Procedure • 1. Dose each tissue with 140 μL of test chemical • 2. […] Take out of incubator and vortex pulse 3× • 2. Aliquot 500 μL to cuvette and read results at OD190, OD290, and OD300
There were three readings done at an optical density of 190, 290, and 300 nm to evaluate the best response. […] To address the variable exposure conditions, our next studies involved placing a larger porcine skin section into a holder that exposes only the epidermis side with no potential for test chemical exposure from the backside or through the sides.

[7] = test system: phosphatase; format: biochemical, porcine; conditions: for percent of phosphatase measured (optical density compared to the naïve condition), average: average of two readings; for percent of phosphatase measured (optical density compared to the naïve condition): single readings
Procedure: Our next studies involved applying the test substance (500 μL) directly to the epidermis side of previously frozen porcine skin (Spear Products, Coopersburg, PA) that is placed in a holder that only exposes the epidermis side for 30 minutes, adding phosphate buffered saline (PBS) with added sodium azide (metabolic inhibitor that ensure no viable tissue), then aliquoting into cuvettes to read at an optical density of 300 nm. […] So, at the end of the initial studies described above, almost out of frustration, we tried to probe for released phosphatase activity using p-Nitrophenyl phosphate disodium salt (PNPP; Sigma Aldrich, St. Louis, MO) substrate solution to detect any presence of phosphatase.
Preparation • 1. Thaw 2 pieces of frozen porcine skin • a. Punch out as many skin discs and mount in holders • 2. Label cuvettes (3 for each chemical) Procedure • 1. Add 500 μL of test chemical to holder; incubate at room temperate for 30 minutes • 2. After 30 minutes, add 2 mL of PBS-Azide to both the holder containing the test chemical; forcefully pipette and re-pipette 10 times • 3. From the holder, aliquot 400 μL into 3 cuvettes; forcefully pipette and re-pipette 3 times before dispensing into cuvettes Reading Results • 1. Measure at OD300 for all cuvettes
Skin corrosion by GHS Category 1 dermal corrosive chemicals results in the disintegration of the epidermis into the dermis.

[8] = test system: alkaline phosphatase; experiment: Alkaline phosphatase experiment, third week: with and without discs; format: biochemical
Description: Our next study focused on an in vitro method of detecting the potential of dermal corrosives to inhibit nonspecific phosphatases that may be released from the skin. We decided to test pure […] instead of relying on endogenous skin phosphatase. Alkaline phosphatase (Sigma Aldrich, St. Louis, MO) was purchased and suspended to make the reaction reagent (10,000 units). […] We note that the ratio used was 0.1 g/ml or 10% chemical—which is far in excess of any pharmaceutical applications. We further note that pharmaceutical enzyme inhibition tests, studies an use involve highly specific active site binding and these assays are conducted at ratios of micrograms-femtograms per ml. These studies are done at these ranges because these are the realistic concentrations for drug applications and therapeutics. […] So when a 50 Kg human consumes the tables, the tissues will be exposed at a 5 mg/50 kg=0.1 mg/kg=0.0000001 g/ml.
Next two quantitative methods were evaluated: 1) using the discs parts from our OptiSafe™ test method and 2) directly into the 24-well plate.
Preparation • 1. Alkaline phosphatase reaction reagent • a. Take 1 vial of AP, add 1 mL of PBS, mix by pipette/re-pipette 10 times • b. To a 50 mL conical tube, add 1 mL of the AP solution prepared above and 40 mL of PBS • 2. Prepare two 24-well plates (1 with discs, 1 without discs) • 3. […] Aliquot 200 μL PNPP and PBS Procedure • 1. Plate 1 (No Discs) • a. Add 1.25 mL from the prepared PBS-AP conical tube to each well (11 wells) • b. Add 100 μL of the test material to the well, mix with the same pipette tip, dispose and repeat for the rest of the test materials • c. Wrap the plate in saran wrap and place into the container • 2. Plate 2 (Discs) • a. Configure the 11 discs in the plate so the plate cover is stable • b. Add 1.25 mL from the prepared PBS-AP conical tube to each well (11 wells) • c. Add 100 μL of the test material to the center of the disc and repeat for the rest of the test materials • d. Put the plate cover on and place into the container • 3. […] Incubate for 1 hour Reading Results • 1. Measure at OD405

[9] = frozen porcine skin with fat layer removed, R 1 and 2
[10] = fresh porcine skin, 140 μL test chemical, R 1 and 2, >3A = outside readable range

Compound | A2 - Results AVG [2] | A2 - Results R1 [2] | A2 - Results R3 [2] | in vivo GHS [4] | OD290 ([6]; fresh porcine skin, R 1 and 2) | OD300 ([6]; fresh porcine skin, R 1 and 2) | OD190 [6, 9] | OD290 [6, 9] | OD290 ([6]; frozen porcine skin, R 1 and 2) | OD300 ([6]; frozen porcine skin, R 1 and 2) | percent of phosphatase measured (optical density compared to the naïve condition), average [7] | percent of phosphatase measured (optical density compared to the naïve condition) [7] | also measured
Cc1ccc(C(C)C)cc1O | 2.597 | 2.462 | 2.772 | Cat. 1B/1C |  |  |  |  |  |  |  |  | OD405 readings, original alkaline phosphatase 1:100 (FIG. 6D) [1]: 0.991 and 0.974 and 1.167; OD405 readings, buffered saline alkaline phosphatase reaction reagent, glass vials (FIG. 11B) [3]: 1.990 and 1.926; OD405 readings, ethanol alkaline phosphatase reaction reagent, glass vials (FIG. 11D) [3]: 3.444 and 3.465 and 3.398
C=CCCC=C [1,5-Hexadiene] | 2.717 | 2.692 | 2.693 |  |  |  |  |  |  |  |  |  | OD405 reading, ethanol solvent, 10 μL dose, 1-hour PNPP (FIG. 7B) [5]: 2.947; OD405 reading, ethanol solvent, 10 μL dose, 30-minute PNPP (FIG. 7A) [5]: 1.702
CC(C)(O)CCc1ccccc1 [2-Methyl-4-phenyl-2-butanol] |  |  |  |  | 0.339 and 0.426 | 0.272 and 0.371 | 0.215 and 0.322 | 0.079 and 0.094 | 0.496 and 0.637 | 0.342 and 0.497 | 99.3% | 98.6% and 100.0% | OD300 [6, 9]: 0.026 and 0.052; OD190 ([6]; frozen porcine skin, R 1 and 2): 0.338 and 0.362; Corrosive ([4]; Yes/No): No
BrCCc1ccccc1 [(2-Bromoethyl)benzene] |  |  |  |  | 0.125 and 0.133 | 0.080 and 0.094 | 0.131 and 0.144 | 0.071 | 0.279 and 0.254 | 0.137 and 0.128 | 100.0% | 100.0% | OD300 [6, 9]: 0.030 and 0.034
CC(=O)O [Acetic acid] | 0.850 | 0.996 | 0.829 |  |  |  |  |  |  |  | 18.9% | 19.1% and 18.6% | OD190 ([6]; pig): >3A; raw optical density reading (PNPP), with discs (FIG. 3A) ([8]; 405 nm, 100 μL chemical, 1.25 mL reaction reagent (10,000 units), 18 hours 37° C., PNPP 1 hour): 0.106 and 0.102 and 0.103; raw optical density reading (PNPP), without discs (FIG. 3B) ([8]; 405 nm, 100 μL chemical, 1.25 mL reaction reagent, 18 hours 37° C., PNPP 1 hour): 0.104 and 0.129 and 0.101; A1 - Results AVG [2]: 0.096; A1 - Results R1 [2]: 0.096; A1 - Results R3 [2]: 0.096; Corrosive ([4]; rabbit, in vivo): Yes
CC(C=O)Cc1ccc(C(C)C)cc1 (centres unmarked) [Cyclamen aldehyde] | 2.777 | 2.736 | 2.845 | Cat. 2 | 0.290 |  |  |  |  |  | 100.0% | 100.0% | Corrosive ([4]; Yes/No): No
NCCO [Ethanolamine] |  |  |  |  | 0.848 and 1.169 | 0.711 and 1.044 | 0.761 and 0.800 | 0.168 and 0.093 | 0.708 and 0.767 | 0.524 and 0.598 | 19.9% | 20.1% and 19.6% | OD190 [6, 10]: >3A; raw optical density reading (PNPP), with discs (FIG. 3A) [8]: 0.170 and 0.166 and 0.172; raw optical density reading (PNPP), without discs (FIG. 3B) [8]: 0.174 and 0.185 and 0.175; Corrosive ([4]; rabbit, in vivo): Yes
CCCCCCCCC=O [Nonyl aldehyde] | 2.227 | 2.496 | 2.117 | Cat. 2 |  |  |  |  |  |  |  |  | OD405 reading, ethanol solvent, 10 μL dose, 1-hour PNPP (FIG. 7B) [5]: 3.078; OD405 reading, ethanol solvent, 10 μL dose, 30-minute PNPP (FIG. 7A) [5]: 1.589
CCCCCCCC(=O)O [Octanoic Acid] | 2.342 | 2.12 | 2.129 |  |  |  |  |  |  |  |  |  | OD405 readings, original alkaline phosphatase 1:100 (FIG. 6D) [1]: 3.462 and 3.491 and 3.333; OD405 readings, buffered saline alkaline phosphatase reaction reagent, glass vials (FIG. 11B) [3]: 1.427 and 1.415 and 1.416; OD405 readings, ethanol alkaline phosphatase reaction reagent, glass vials (FIG. 11D) [3]: 3.283 and 3.408 and 3.220
OCCOCCOCCO [Triethylene glycol] |  |  |  |  |  |  |  |  |  |  | 28.9% | 29.5% and 28.2% | Corrosive ([4]; rabbit, in vivo): No
CCCSSCCC [di-n-Propyl disulfide] | 2.472 | 2.649 | 2.368 | Cat. 2 | 0.139 and 0.137 | 0.105 and 0.096 | 0.443 and 0.405 | 0.082 and 0.063 | 0.294 and 0.240 | 0.161 and 0.119 | 69.9% | 68.1% and 71.6% | OD190 [6, 10]: 0.419 and 0.400; OD300 [6, 9]: 0.031 and 0.018; OD190 ([6]; frozen porcine skin, R 1 and 2): 0.314 and 0.396; Corrosive ([4]; Yes/No): No
